Reference: patent US20240067693A1, “POLYPEPTIDES AND USES THEREOF” (MEDIMMUNE LIMITED, priority 2020, published 2024)
Numbered stars: 1 amine (or outer) side, 2 acyl side, 3 side chain; on linkers, the order of the positions; unused ones are H or OH. Bridge positions count the residues as written; N and C are the ends. Square brackets hold non-standard residues; d marks the D form. Side chains are listed from the residue outwards. Peptide text beside a SMILES is read from it. * marks the point of attachment. C20 diacid = O=C(O)CCCCCCCCCCCCCCCCCCC(=O)*; C18 diacid = O=C(O)CCCCCCCCCCCCCCCCC(=O)*; γGlu = O=C(O)[C@H](CCC(=O)[*:2])N[*:1]; AEEA = NCCOCCOCC(=O)O; Aib = CC(C)(N)C(=O)O

Experiments:
[1] = Thioflavin T fibrillation assay; type: physicochemical; conditions: for fibril-forming tendency: ThT assay, 1 mg/mL, pH 4.0, 37 °C, compared to pramlintide; for Time taken to detect increase in fluorescence intensity: ThT fibrillation assay, peptide 1 mg/mL in 25 mM sodium acetate buffer pH 4.0, 6 days at 37 °C with shaking, >144 h = no increase
Outline: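 Peptides at 1 mg/mL in 25 mM sodium acetate pH 4.0 with ThT (from 0.25 mM stock), incubated 6 days at 37 °C with intermittent orbital shaking at 500–750 rpm. Fluorescence (ex 444/em 480 nm) read every 30 min; value is average time to a rise in baseline-corrected signal.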

[2] = biological target: T1, rat amylin receptor (calcitonin receptor co-expressed with receptor activity modifying protein, RAMP3) (Rat AMYR3) (Rattus norvegicus, UniProt P32214+Q9JJ73); assay: cAMP production in HEK cells with stable recombinant expression of rat amylin receptor (Rat AMYR3); type: cell-based; conditions: assay buffer with 0.1% BSA
T1 construct: expressed in transfected cells
T1 sequence (P32214 25-516): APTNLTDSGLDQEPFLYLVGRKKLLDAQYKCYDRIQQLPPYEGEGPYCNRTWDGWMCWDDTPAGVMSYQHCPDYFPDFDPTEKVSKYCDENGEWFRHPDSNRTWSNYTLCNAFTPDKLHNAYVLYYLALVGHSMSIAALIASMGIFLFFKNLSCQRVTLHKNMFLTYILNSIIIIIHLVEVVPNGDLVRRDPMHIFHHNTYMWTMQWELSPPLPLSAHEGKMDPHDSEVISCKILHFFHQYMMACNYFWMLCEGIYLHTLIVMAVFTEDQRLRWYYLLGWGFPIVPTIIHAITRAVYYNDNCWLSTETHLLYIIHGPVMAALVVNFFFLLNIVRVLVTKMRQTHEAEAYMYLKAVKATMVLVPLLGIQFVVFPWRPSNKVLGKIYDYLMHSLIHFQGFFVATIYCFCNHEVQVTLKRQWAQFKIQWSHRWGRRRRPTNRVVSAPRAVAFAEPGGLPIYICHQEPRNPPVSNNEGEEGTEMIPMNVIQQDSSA
T1 sequence (Q9JJ73 23-147 partner): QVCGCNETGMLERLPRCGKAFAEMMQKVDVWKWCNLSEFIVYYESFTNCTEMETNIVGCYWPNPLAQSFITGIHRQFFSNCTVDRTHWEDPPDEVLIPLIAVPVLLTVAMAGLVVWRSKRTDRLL
Outline: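 EC50 values come from 4-parameter logistic fits of HTRF cAMP signal, normalised to maximal calcitonin or amylin effect. Peptides were tested in duplicate for 30 min at RT in IBMX-containing (0.5 mM) BSA/HEPES buffer pH 7.4 on stable 1321N1 (human CTR, AMYR3) or HEK (rat CTR, AMYR3) lines.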

[3] = test system: lean rats; assay: Rat acute food intake study; type: in vivo; conditions: lean male Sprague Dawley rats, 20 nmol/kg subcutaneously
Outline: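 Male Sprague Dawley rats (n=7/group), fasted 6 h, received 20 nmol/kg test compound or 60 nmol/kg pramlintide subcutaneously 30 min before food return at dark onset. Food intake recorded automatically in home cages over 3 days, binned hourly and analysed as cumulative dark-period intake; body weight taken daily.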

Row | Structure (SMILES) | fibril-forming tendency [1] | Time taken to detect increase in fluorescence intensity [1] [h] | EC50 [2] [pM] | Cummulative food intake (% vehicle treated intake) At 12 h [3] [% vehicle treated intake] | Cummulative food intake (% vehicle treated intake) At 24 h [3] [% vehicle treated intake] | Cummulative food intake (% vehicle treated intake) At 48 h [3] [% vehicle treated intake]
1 | CC[C@H](C)[C@H](NC(=O)[C@@H]1CCCN1C(=O)CNC(=O)[C@H](Cc1ccccc1)NC(=O)[C@H](CC(N)=O)NC(=O)[C@H](CC(N)=O)NC(=O)[C@H](CO)NC(=O)[C@H](CO)NC(=O)[C@H](Cc1c[nH]cn1)NC(=O)[C@@H](NC(=O)[C@H](CC(C)C)NC(=O)[C@H](Cc1ccccc1)NC(=O)[C@H](CC(N)=O)NC(=O)[C@H](C)NC(=O)[C@H](CC(C)C)NC(=O)[C@H](CCCNC(=N)N)NC(=O)[C@H](CCC(N)=O)NC(=O)[C@@H](NC(=O)[C@H](C)NC(=O)[C@@H]1CSSC[C@H](NC(=O)[C@H](CCCCN)NC(=O)CC[C@H](NC(=O)CCCCCCCCCCCCCCCCCCC(=O)O)C(=O)O)C(=O)N[C@@H](CC(N)=O)C(=O)N[C@@H]([C@@H](C)O)C(=O)N[C@@H](C)C(=O)N[C@@H]([C@@H](C)O)C(=O)N1)[C@@H](C)O)C(C)C)C(=O)N[C@@H](CC(C)C)C(=O)N1CCC[C@H]1C(=O)N1CCC[C@H]1C(=O)N[C@H](C(=O)N[C@@H](CC(N)=O)C(=O)N[C@H](C(=O)NCC(=O)N[C@@H](CO)C(=O)N[C@@H](CC(N)=O)C(=O)N[C@H](C(=O)N[C@@H](Cc1ccc(O)cc1)C(N)=O)[C@@H](C)O)C(C)C)[C@@H](C)O [Peptide 112] ({C20 diacid-γGlu}-KCNTATCATQRLANFLVHSSNNFGPILPPTNVGSNTY-NH2; disulfide 2-7) | increases the fibril-forming tendency | <5 | 16 | 15.8 | 15.9 | 22.1
2 | CC[C@H](C)[C@H](NC(=O)[C@@H]1CCCN1C(=O)CNC(=O)[C@H](Cc1ccccc1)NC(=O)[C@H](CC(N)=O)NC(=O)[C@H](CC(N)=O)NC(=O)[C@H](CO)NC(=O)[C@H](CO)NC(=O)[C@H](Cc1c[nH]cn1)NC(=O)[C@@H](NC(=O)[C@H](CC(C)C)NC(=O)[C@H](Cc1ccccc1)NC(=O)[C@H](CC(N)=O)NC(=O)[C@H](C)NC(=O)[C@H](CC(C)C)NC(=O)[C@H](CCCNC(=N)N)NC(=O)[C@H](CCC(N)=O)NC(=O)[C@@H](NC(=O)[C@H](C)NC(=O)[C@@H]1CSSC[C@H](NC(=O)[C@H](CCCCN)NC(=O)COCCOCCNC(=O)COCCOCCNC(=O)CC[C@H](NC(=O)CCCCCCCCCCCCCCCCCCC(=O)O)C(=O)O)C(=O)N[C@@H](CC(N)=O)C(=O)N[C@@H]([C@@H](C)O)C(=O)N[C@@H](C)C(=O)N[C@@H]([C@@H](C)O)C(=O)N1)[C@@H](C)O)C(C)C)C(=O)N[C@@H](CC(C)C)C(=O)N1CCC[C@H]1C(=O)N1CCC[C@H]1C(=O)N[C@H](C(=O)N[C@@H](CC(N)=O)C(=O)N[C@H](C(=O)NCC(=O)N[C@@H](CO)C(=O)N[C@@H](CC(N)=O)C(=O)N[C@H](C(=O)N[C@@H](Cc1ccc(O)cc1)C(N)=O)[C@@H](C)O)C(C)C)[C@@H](C)O [Peptide 113] ({C20 diacid-γGlu-AEEA-AEEA}-KCNTATCATQRLANFLVHSSNNFGPILPPTNVGSNTY-NH2; disulfide 2-7) | increases the fibril-forming tendency | <5 | 32.6 | 69.5 | 65.8 | 77.9
3 | CC[C@H](C)[C@H](NC(=O)[C@@H]1CCCN1C(=O)CNC(=O)[C@H](Cc1ccccc1)NC(=O)[C@H](CC(N)=O)NC(=O)[C@H](CC(N)=O)NC(=O)[C@H](CO)NC(=O)[C@H](CO)NC(=O)[C@H](Cc1c[nH]cn1)NC(=O)C(C)(C)NC(=O)[C@H](CC(C)C)NC(=O)[C@H](Cc1ccccc1)NC(=O)[C@H](CC(N)=O)NC(=O)[C@H](C)NC(=O)[C@H](CC(C)C)NC(=O)[C@H](CCCNC(=N)N)NC(=O)[C@H](CCC(N)=O)NC(=O)[C@@H](NC(=O)[C@H](C)NC(=O)[C@@H]1CSSC[C@H](NC(=O)[C@H](CCCCN)NC(=O)[C@@H](N)CCCCNC(=O)CC[C@H](NC(=O)CCCCCCCCCCCCCCCCC(=O)O)C(=O)O)C(=O)N[C@@H](CC(N)=O)C(=O)N[C@@H]([C@@H](C)O)C(=O)N[C@@H](C)C(=O)N[C@@H]([C@@H](C)O)C(=O)N1)[C@@H](C)O)C(=O)N[C@@H](CC(C)C)C(=O)N1CCC[C@H]1C(=O)N1CCC[C@H]1C(=O)N[C@H](C(=O)N[C@@H](CC(N)=O)C(=O)N[C@H](C(=O)NCC(=O)N[C@@H](CO)C(=O)N[C@@H](CC(N)=O)C(=O)N[C@H](C(=O)N[C@@H](Cc1ccc(O)cc1)C(N)=O)[C@@H](C)O)C(C)C)[C@@H](C)O [Peptide 129] (H-K([γGlu-C18 diacid])KCNTATCATQRLANFL[Aib]HSSNNFGPILPPTNVGSNTY-NH2; disulfide 3-8; N-terminus assumed) | – | >144 | 11.2 | 29 | 32.4 | 51
